This note sets out measurements from US11111245B2, “Derivatives of N-cycloalkyl/heterocycloalkyl-4-(imidazo[1,2-a]pyridine)pyrimidin-2-amine as therapeutic agents” (Aucentra Therapeutics Pty Ltd, priority 2017, dated 2021).

Assay [1] has as its system T47D. Nature of the assay: MTT cell viability assay, T47D breast cancer cell line (72 h). The class given is cell-based. As to conditions: Homo sapiens, read-out: 72 h Antiproliferative activity, GI50 (μmol/L) ± SD. The protocol:
(§1) Compounds from Example 1 were subjected to a standard MTT (3-(4,5-dimethylthiazol-2-yl)-2,5-diphenyltetrazolium bromide) and resazurin assays on solid tumour cell lines and leukemia cell lines, respectively, as previously reported (Wang S et al., J Med Chem 47:1662-1675, 2004 and Diab S. et al. CheMedChem 9:962-972, 2014). Compound concentrations required to inhibit 50% of cell growth (GI50) were calculated using non-linear regression analysis.

Assay [2] concerns MCF-7. Nature of the assay: MTT cell viability assay, MCF-7 breast cancer cell line (72 h). As to conditions: Homo sapiens, MCF7, MCF-7, 72 h, read-out: 72 h Antiproliferative activity, GI50 (μmol/L) ± SD. The class given is cell-based. How it is done:
as §1

The test system of assay [3] is MDA-MB-231. As to the kind of experiment: MTT cell viability assay, MDA-MB-231 breast cancer cell line (72 h). The assay is classed as cell-based. As to conditions: Homo sapiens, MDA-MB-231, 72 h, read-out: 72 h Antiproliferative activity, GI50 (μmol/L) ± SD. The protocol:
as §1

Assay [4] relates to MDA-MB-453. As to the kind of experiment: MTT cell viability assay, MDA-MB-453 breast cancer cell line (72 h). The class given is cell-based. As to conditions: Homo sapiens, MDA-MB-453, 72 h, read-out: 72 h Antiproliferative activity, GI50 (μmol/L) ± SD. How it is done:
as §1
(In general: Formazan colour is commonly taken as a measure of viable cells.)

Assay [5] has as its system MDA-MB-468. As to the kind of experiment: MTT cell viability assay, MDA-MB-468 breast cancer cell line (72 h). The class given is cell-based. As to conditions: Homo sapiens, MDA-MB-468, 72 h, read-out: 72 h Antiproliferative activity, GI50 (μmol/L) ± SD. How it is done: as §1
Assay [6] relates to A2780. As to the kind of experiment: MTT cell viability assay, A2780 ovarian cancer cell line (72 h). The assay is classed as cell-based. As to conditions: Homo sapiens, A2780, 72 h, read-out: 72 h Antiproliferative activity, GI50 (μmol/L) ± SD. The protocol: as §1
The test system of assay [7] is PC3. Nature of the assay: MTT cell viability assay, PC3 prostate cancer cell line (72 h). The assay is classed as cell-based. As to conditions: Homo sapiens, PC-3, PC3, 72 h, read-out: 72 h Antiproliferative activity, GI50 (μmol/L) ± SD. The protocol: as §1
For assay [8], the system named is LNCap. As to the kind of experiment: MTT cell viability assay, LNCap prostate cancer cell line (72 h). The class given is cell-based. As to conditions: Homo sapiens, read-out: 72 h Antiproliferative activity, GI50 (μmol/L) ± SD. The protocol: as §1
For assay [9], the system named is MOLM13. As to the kind of experiment: Resazurin cell viability assay, MOLM13 leukaemia cell line (72 h). The class given is cell-based. As to conditions: Homo sapiens, MOLM-13, MOLM13, 72 h, read-out: 72 h Antiproliferative activity, GI50 (μmol/L) ± SD. The protocol:
as §1
(In general: Resazurin is reduced to fluorescent resorufin, in cell work by metabolically active cells.)

For assay [10], the system named is NB4. Nature of the assay: Resazurin cell viability assay, NB4 leukaemia cell line (72 h). The class given is cell-based. As to conditions: Homo sapiens, NB-4, NB4, 72 h, read-out: 72 h Antiproliferative activity, GI50 (μmol/L) ± SD. How it is done: as §1
Assay [11] relates to U937. Nature of the assay: Resazurin cell viability assay, U937 leukaemia cell line (72 h). The assay is classed as cell-based. As to conditions: Homo sapiens, U-937, U937, 72 h, read-out: 72 h Antiproliferative activity, GI50 (μmol/L) ± SD. How it is done: as §1
Assay [12] concerns the target CDK4/D1 (Homo sapiens, UniProt P11802). As to the kind of experiment: ADP Glo Kinase assay CDK4/D1. As to conditions: CDK4D1; for Ki: read-out: CDK inhibition, Ki (μM) CDK4D1; for remaining activity at 10 µM: compound at 10 μM, read-out: residual activity (%) at 10 μM CDK4D1. The class given is biochemical. The method, boiled down:
(§2)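 Compounds tested at 10 concentrations (10 μM to 0.5 nM, 1:3 steps) against CDK4/D1 or CDK6/D3, RB-CTF substrate, Tris pH 7.5 buffer with MgCl2, DTT and BSA.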

Assay [13] deals with CDK6/D3 (Homo sapiens, UniProt Q00534). Nature of the assay: ADP Glo Kinase assay CDK6/D3. The class given is biochemical. As to conditions: CDK6D3; for Ki: read-out: CDK inhibition, Ki (μM) CDK6D3; for remaining activity at 10 µM: compound at 10 μM, read-out: residual activity (%) at 10 μM CDK6D3. In a few lines: as §2
Background: In ADP-Glo the light output rises with the ADP produced.

The target in assay [14] is CDK9/T1 (Homo sapiens, UniProt P50750). Nature of the assay: ADP Glo Kinase assay CDK9/T1. The assay is classed as biochemical. As to conditions: CDK9T1; read-out: CDK inhibition, Ki (μM) CDK9T1. In a few lines:
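ADP Glo luminescence, in-house: CDK4/D1, CDK6/D3 on RB-CTF substrate (Tris pH 7.5, MgCl2, DTT, BSA); CDK9/T1 on RBER-IRStide. Reaction 40 min, 37° C after ATP addition. 10-point 1:3 series, 10 μM to 0.5 nM. IC50 by 4-parameter logistic; Ki derived using ATP Km.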

Assay [15] has as its target T1, CDKs and other kinases (Homo sapiens, UniProt P06493).
T1 construct: other: CDK1B; residual activity (%) at 10 μM CDK1B; compound at 10 μM
Nature of the assay: Radiometric kinase assay (Eurofins Pharma Discovery or Reaction Biology Corporation Kinase Profiler). The class given is biochemical. As to conditions: CDK1B; for Ki: read-out: CDK inhibition, Ki (μM) CDK1B; for remaining activity at 10 µM: compound at 10 μM, read-out: residual activity (%) at 10 μM CDK1B. The method, boiled down:
(§3)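 Other CDKs and further kinases were profiled externally by radiometric assay. In-house ADP Glo assays covered CDK4/D1 and CDK6/D3 (RB-CTF substrate, pH 7.5 Tris buffer with MgCl2, DTT, BSA) and CDK9/T1 (RBER-IRStide substrate), 40 min at 37° C.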

The target of assay [16] is T2, CDKs and other kinases (Homo sapiens, UniProt P24941).
T2 construct: other: CDK2A; residual activity (%) at 10 μM CDK2A; compound at 10 μM
The description is as above. The assay is classed as biochemical. As to conditions: CDK2A; for Ki: read-out: CDK inhibition, Ki (μM) CDK2A; for remaining activity at 10 µM: compound at 10 μM, read-out: residual activity (%) at 10 μM CDK2A. The method, boiled down: as §3

Assay [17] concerns the target T3, CDKs and other kinases (Homo sapiens, UniProt P50613).
T3 construct: other: CDK7H; residual activity (%) at 10 μM CDK7H; compound at 10 μM
Described as above. As to conditions: CDK7H; for Ki: read-out: CDK inhibition, Ki (μM) CDK7H; for remaining activity at 10 µM: compound at 10 μM, read-out: residual activity (%) at 10 μM CDK7H. The assay is classed as biochemical. In a few lines: as §3

The subject of assay [18] is leukemia cell lines. Nature of the assay: Resazurin cell viability assay on leukemia cell lines (72 h growth inhibition, GI50). The class given is cell-based. As to conditions: Homo sapiens, MV4-11 cells. The method, boiled down: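 GI50 values from non-linear regression of growth inhibition; read-out was MTT for solid tumour cells, resazurin for leukaemia cells.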

CDK6/D3, sequence (Q00534 whole entry): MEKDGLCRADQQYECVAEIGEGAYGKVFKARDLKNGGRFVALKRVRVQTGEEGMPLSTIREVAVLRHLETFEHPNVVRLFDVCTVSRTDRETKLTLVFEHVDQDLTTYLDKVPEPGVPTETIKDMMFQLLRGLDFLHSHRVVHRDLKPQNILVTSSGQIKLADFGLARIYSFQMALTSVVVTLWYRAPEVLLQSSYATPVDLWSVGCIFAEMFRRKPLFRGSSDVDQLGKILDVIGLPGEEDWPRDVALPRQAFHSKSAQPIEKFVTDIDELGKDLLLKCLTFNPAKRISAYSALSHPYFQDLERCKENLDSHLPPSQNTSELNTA
CDK6/D3, sequence (P30281 whole entry partner): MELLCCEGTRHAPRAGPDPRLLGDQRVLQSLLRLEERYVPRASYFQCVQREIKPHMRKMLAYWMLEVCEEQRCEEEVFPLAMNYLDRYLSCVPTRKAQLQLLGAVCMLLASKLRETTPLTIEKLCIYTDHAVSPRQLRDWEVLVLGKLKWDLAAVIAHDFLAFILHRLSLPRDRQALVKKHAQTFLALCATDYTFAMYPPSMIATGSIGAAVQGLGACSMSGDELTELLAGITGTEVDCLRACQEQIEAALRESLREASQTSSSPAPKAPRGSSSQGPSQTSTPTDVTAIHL
T3 sequence (P50613 whole entry): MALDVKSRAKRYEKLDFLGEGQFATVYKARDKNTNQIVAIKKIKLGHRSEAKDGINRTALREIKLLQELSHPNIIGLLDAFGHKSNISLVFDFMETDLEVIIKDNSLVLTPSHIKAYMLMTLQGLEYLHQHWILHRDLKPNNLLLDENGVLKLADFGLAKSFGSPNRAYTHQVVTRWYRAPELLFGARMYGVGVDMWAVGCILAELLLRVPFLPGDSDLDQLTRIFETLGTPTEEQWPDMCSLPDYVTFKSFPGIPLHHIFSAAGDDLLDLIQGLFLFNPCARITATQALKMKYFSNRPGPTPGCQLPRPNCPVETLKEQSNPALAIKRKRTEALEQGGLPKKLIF
CDK9/T1, sequence (P50750 whole entry): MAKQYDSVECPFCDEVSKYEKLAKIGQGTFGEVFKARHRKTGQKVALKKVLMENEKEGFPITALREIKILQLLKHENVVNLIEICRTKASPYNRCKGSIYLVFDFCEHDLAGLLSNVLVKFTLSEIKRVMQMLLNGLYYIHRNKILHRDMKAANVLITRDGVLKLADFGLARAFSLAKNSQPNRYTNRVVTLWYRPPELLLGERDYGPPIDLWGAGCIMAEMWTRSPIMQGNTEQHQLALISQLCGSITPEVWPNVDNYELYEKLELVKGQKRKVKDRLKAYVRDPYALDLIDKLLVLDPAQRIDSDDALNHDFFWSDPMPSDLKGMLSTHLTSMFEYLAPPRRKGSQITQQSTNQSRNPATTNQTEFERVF
CDK9/T1, sequence (O60563 whole entry partner): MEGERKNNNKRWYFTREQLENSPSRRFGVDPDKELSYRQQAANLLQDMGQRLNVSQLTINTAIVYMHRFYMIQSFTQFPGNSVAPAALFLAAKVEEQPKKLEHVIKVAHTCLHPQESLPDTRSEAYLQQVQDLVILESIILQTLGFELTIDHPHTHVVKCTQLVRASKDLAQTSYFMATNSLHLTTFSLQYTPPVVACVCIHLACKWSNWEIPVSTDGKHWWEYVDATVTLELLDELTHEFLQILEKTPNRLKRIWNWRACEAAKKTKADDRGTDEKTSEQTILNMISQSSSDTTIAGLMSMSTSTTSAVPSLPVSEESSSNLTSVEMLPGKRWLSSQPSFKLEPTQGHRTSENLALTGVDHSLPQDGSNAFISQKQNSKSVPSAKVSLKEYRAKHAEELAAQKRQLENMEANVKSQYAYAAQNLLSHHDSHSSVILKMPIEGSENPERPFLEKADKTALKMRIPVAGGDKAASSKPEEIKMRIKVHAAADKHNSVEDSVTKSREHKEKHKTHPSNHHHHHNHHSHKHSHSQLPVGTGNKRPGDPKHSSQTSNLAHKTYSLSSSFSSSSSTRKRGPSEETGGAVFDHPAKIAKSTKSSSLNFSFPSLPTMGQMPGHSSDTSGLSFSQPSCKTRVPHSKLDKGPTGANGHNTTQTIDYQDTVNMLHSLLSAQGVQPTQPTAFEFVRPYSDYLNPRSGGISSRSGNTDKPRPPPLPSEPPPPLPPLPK
T1 sequence (P06493 whole entry): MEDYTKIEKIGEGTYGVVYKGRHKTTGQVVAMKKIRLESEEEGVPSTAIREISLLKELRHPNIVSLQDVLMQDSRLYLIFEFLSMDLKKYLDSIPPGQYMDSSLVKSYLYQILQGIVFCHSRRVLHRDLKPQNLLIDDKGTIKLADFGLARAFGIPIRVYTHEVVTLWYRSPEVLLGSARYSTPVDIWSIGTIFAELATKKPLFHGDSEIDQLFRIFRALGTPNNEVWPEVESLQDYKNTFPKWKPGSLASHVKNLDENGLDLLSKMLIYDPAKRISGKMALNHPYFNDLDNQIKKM
CDK4/D1, sequence (P11802 whole entry): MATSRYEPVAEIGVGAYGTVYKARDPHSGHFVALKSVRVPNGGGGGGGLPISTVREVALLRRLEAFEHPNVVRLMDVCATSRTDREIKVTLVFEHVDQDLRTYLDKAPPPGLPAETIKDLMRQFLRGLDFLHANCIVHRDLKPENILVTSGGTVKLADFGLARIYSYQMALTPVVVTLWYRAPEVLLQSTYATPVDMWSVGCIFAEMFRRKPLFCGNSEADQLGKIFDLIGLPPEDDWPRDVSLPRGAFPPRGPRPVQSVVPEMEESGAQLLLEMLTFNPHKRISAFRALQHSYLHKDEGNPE
CDK4/D1, sequence (P24385 whole entry partner): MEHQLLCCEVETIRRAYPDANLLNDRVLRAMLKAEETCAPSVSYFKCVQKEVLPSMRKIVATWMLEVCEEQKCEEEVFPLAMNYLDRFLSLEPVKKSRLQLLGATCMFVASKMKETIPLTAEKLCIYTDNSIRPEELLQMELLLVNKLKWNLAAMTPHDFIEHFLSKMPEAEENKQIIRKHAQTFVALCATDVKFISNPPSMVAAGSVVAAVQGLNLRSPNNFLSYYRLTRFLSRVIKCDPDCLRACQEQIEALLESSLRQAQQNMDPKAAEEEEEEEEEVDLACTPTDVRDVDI

As to `Cc1cnc(N[C@H]2CC[C@H](N)CC2)nc1-c1cnc2ccc(-c3ccccc3)cn12` [Compound 10, (1r,4r)-N^1-(5-Methyl-4-(6-phenylimidazo[1,2-a]pyridin-3-yl)pyrimidin-2-yl)cyclohexane-1,4-diamine], the GI50 in assay [1] worked out at 0.834 ± 0.066 µmol/L; in assay [2], 0.247 ± 0.014 µmol/L; in [3], 0.418 ± 0.123 µmol/L; in [4] it was 0.049 ± 0.012 µmol/L; in assay [5] it was 0.42 ± 0.07 µmol/L; in assay [6] it was 0.278 ± 0.032 µmol/L. Moreover, the GI50 in assay [7] is 0.289 ± 0.098 µmol/L; in [8], 0.202 ± 0.052 µmol/L; in assay [9], 0.019 ± 0.001 µmol/L; in [10], 0.153 ± 0.051 µmol/L; in assay [11], 0.156 ± 0.05 µmol/L; in assay [18] it was 0.059 ± 0.008 µM. Also, the inhibition constant Ki in assay [12] amounted to 2.62 µM; in [13], 1.54 µM; in [14] it was 0.008 µM; in [15] it was 1.53 µM; in assay [16], 0.43 µM; in [17], 0.6 µM.
For `N[C@H]1CC[C@H](Nc2ncc(F)c(-c3cnc4ccc(NCc5ccc(F)cc5)cn34)n2)CC1` [Compound 7, (1r,4r)-N^1-(5-Fluoro-4-(6-((4-fluorobenzyl)amino)imidazo [1,2-a]pyridin-3-yl)pyrimidin-2-yl)cyclohexane-1,4-diamine], the GI50 in assay [1] was found to be 0.616 ± 0.086 µmol/L; in [2], 0.218 ± 0.013 µmol/L; in [3] it was 0.035 ± 0.008 µmol/L; in [4] it was 0.931 ± 0.269 µmol/L; in assay [5], 0.08 ± 0.015 µmol/L; in assay [6] it was 0.274 ± 0.03 µmol/L. In addition, the GI50 in [7] was 0.087 ± 0.04 µmol/L; in assay [9] it was 0.015 ± 0.006 µmol/L; in assay [10], 0.16 ± 0.052 µmol/L; in [11], 0.156 ± 0.061 µmol/L; in assay [18] it was 0.075 ± 0.011 µM. In addition, the Ki in assay [12] was 0.691 µM; in assay [13], 1.71 µM; in [14], 0.006 µM; in assay [15], 0.42 µM; in assay [16], 0.24 µM; in [17], 0.73 µM.
As for `Cc1cnc(N[C@H]2CC[C@H](N)CC2)nc1-c1cnc2ccc(Nc3cncnc3)cn12` [Compound 115, (1r,4r)-N^1-(5-Methyl-4-(6-(pyrimidin-5-ylamino)imidazo [1,2-a]pyridin-3-yl)pyrimidin-2-yl)cyclohexane-1,4-diamine], the Ki was 1.24 µM in assay [12]; 1.11 µM in assay [13]; 0.006 µM in [14]; 1.35 µM in [15]; 0.14 µM in [16]; 4 µM in assay [17]. This compound came in with a GI50 in [18] of 0.552 ± 0.166 µM.
For the compound `N[C@H]1CC[C@H](Nc2ncc(Cl)c(-c3cnc4ccc(-c5ccc(N6CCNCC6)nc5)cn34)n2)CC1` [Compound 84, (1r,4r)-N^1-(5-Chloro-4-(6-(6-(piperazin-1-yl)pyridin-3-yl)imidazo[1,2-a]pyridin-3-yl)pyrimidin-2-yl)cyclohexane-1,4-diamine], the remaining activity at 10 µM amounted to 9% in assay [12]; 12% in assay [13]; 51% in assay [15]; 39% in [16]; 10% in assay [17]. Moreover, the inhibition constant (Ki) in assay [14] was 0.033 µM. In assay [18], this compound displayed a GI50 of 0.035 ± 0.006 µM.
As for `N[C@H]1CC[C@H](Nc2ncc(F)c(-c3cnc4cc(-c5cccnc5)ccn34)n2)CC1` [Compound 45, (1r,4r)-N^1-(5-Fluoro-4-(7-(pyridin-3-yl)imidazo[1,2-a]pyridin-3-yl)pyrimidin-2-yl)cyclohexane-1,4-diamine], the remaining activity at 10 µM stood at 5% in assay [12]; 0% in [13]; 0% in assay [15]; 0% in [16]; 2% in assay [17]. The Ki in assay [14] is 0.006 µM. Moreover, in assay [18], the GI50 is < 0.001 µM.

The Ki is a dissociation constant, usually derived from enzyme kinetics or from competition with a known ligand.
